Common to all, as to format: in vivo
Test [1] concerns yellow fever mosquito (Aedes aegypti). Kind of test: whole plant or invertebrate. Conditions: 48 h, larval mortality visually assessed after 2 days, read-out: mortality in comparison with untreated controls. The protocol:
For evaluating control of yellow fever mosquito (Aedes aegypti) the test unit consisted of 96-well-microtiter plates containing 200 μl of tap water per well and 5-15 freshly hatched A. aegypti larvae.
The active compounds were formulated using a solution containing 75% (v/v) water and 25% (v/v) DMSO. Different concentrations of formulated compounds or mixtures were sprayed onto the insect diet at 2.5 μl, using a custom built micro atomizer, at two replications.
After application, microtiter plates were incubated at 28±1° C., 80±5% RH for 2 days. Larval mortality was then visually assessed.

Test [2] has as its system boll weevil (Anthonomus grandis). Kind of test: Action on boll weevil (Anthonomus grandis), 96-well microtiter plate diet test. To be noted: 120 h, egg and larval mortality after 5 days, read-out: mortality in comparison with untreated controls. The method, then:
For evaluating control of boll weevil (Anthonomus grandis) the test unit consisted of 96-well-microtiter plates containing an insect diet and 5-10 A. grandis eggs.
The compounds were formulated using a solution containing 75% v/v water and 25% v/v DMSO. Different concentrations of formulated compounds were sprayed onto the insect diet at 5 μl, using a custom built micro atomizer, at two replications.
After application, microtiter plates were incubated at about 25±1° C. and about 75±5% relative humidity for 5 days. Egg and larval mortality was then visually assessed.

Test [3] deals with tobacco budworm (Heliothis virescens). Briefly: Action on tobacco budworm (Heliothis virescens), 96-well microtiter plate diet test. To be noted: 120 h, egg and larval mortality after 5 days, read-out: mortality in comparison with untreated controls. The protocol:
For evaluating control of tobacco budworm (Helliothis virescens) the test unit consisted of 96-well-microtiter plates containing an insect diet and 15-25 H. virescens eggs.
The compounds were formulated using a solution containing 75% v/v water and 25% v/v DMSO. Different concentrations of formulated compounds were sprayed onto the insect diet at 10 μl, using a custom built micro atomizer, at two replications.
After application, microtiter plates were incubated at about 28±1° C. and about 80±5% relative humidity for 5 days. Egg and larval mortality was then visually assessed.

In test [4] the test system is Diamond Back Moth (Plutella xylostella). Briefly: Action on diamond back moth (Plutella xylostella), cabbage leaf dip. To be noted: foliar, 3rd instar larvae on dipped cabbage leaves, 72 hours after treatment, read-out: mortality in comparison with untreated controls. The protocol:
The active compound is dissolved at the desired concentration in a mixture of 1:1 (vol:vol) distilled water:acetone. Surfactant (Kinetic® HV) is added at a rate of 0.01% (vol/vol).The test solution is prepared at the day of use.
Leaves of cabbage were dipped in test solution and air-dried. Treated leaves were placed in petri dishes lined with moist filter paper and inoculated with ten 3rd instar larvae. Mortality was recorded 72 hours after treatment. Feeding damages were also recorded using a scale of 0-100%.

Test [5] has as its system Southern Armyworm (Spodoptera eridania), 2nd Instar Larvae. Briefly: Action on southern armyworm (Spodoptera eridania), 2nd instar larvae, sprayed lima bean plants. Conditions: 96 h, 2nd instar larvae on lima bean, 4 days after treatment, read-out: mortality in comparison with untreated controls. The protocol:
The active compounds were formulated by a Tecan liquid handler in 100% cyclohexanone as a 10,000 ppm solution supplied in tubes. The 10,000 ppm solution was serially diluted in 100% cyclohexanone to make interim solutions. These served as stock solutions for which final dilutions were made by the Tecan in 50% acetone:50% water (v/v) into 10 or 20 ml glass vials. A nonionic surfactant (Kinetic®) was included in the solution at a volume of 0.01% (v/v). The vials were then inserted into an automated electrostatic sprayer equipped with an atomizing nozzle for application to plants/insects.
Lima bean plants (variety Sieva) were grown 2 plants to a pot and selected for treatment at the 1st true leaf stage. Test solutions were sprayed onto the foliage by an automated electrostatic plant sprayer equipped with an atomizing spray nozzle. The plants were dried in the sprayer fume hood and then removed from the sprayer. Each pot was placed into perforated plastic bags with a zip closure. About 10 to 11 armyworm larvae were placed into the bag and the bags zipped closed. Test plants were maintained in a growth room at about 250C and about 20-40% relative humidity for 4 days, avoiding direct exposure to fluorescent light (24 hour photoperiod) to prevent trapping of heat inside the bags. Mortality and reduced feeding were assessed 4 days after treatment, compared to untreated control plants.

The subject of test [6] is Orchid thrips (Dichromothrips corbetti). Briefly: Action on orchid thrips (Dichromothrips corbetti), floral-immersion technique. To be noted: adult thrips, mortality 72 hours after treatment, read-out: mortality in comparison with untreated controls. The method, then:
Dichromothrips corbetti adults used for bioassay were obtained from a colony maintained continuously under laboratory conditions. For testing purposes, the test compound is diluted in a 1:1 mixture of acetone:water (vol:vol), plus Kinetic® HV at a rate of 0.01% v/v.
Thrips potency of each compound was evaluated by using a floral-immersion technique. All petals of individual, intact orchid flowers were dipped into treatment solution and allowed to dry in Petri dishes. Treated petals were placed into individual re-sealable plastic along with about 20 adult thrips. All test arenas were held under continuous light and a temperature of about 28° C. for duration of the assay. After 3 days, the numbers of live thrips were counted on each petal. The percent mortality was recorded 72 hours after treatment.

Take `CC(C=N/N=C1\SCC(=O)N1c1c(C)cccc1C)=Cc1cnc(Nc2ccc(OC(F)(F)F)cc2)nc1` [Compound C-4, (2Z)-3-(2,6-dimethylphenyl)-2-[(2-methyl-3-[2-[4-(trifluoromethoxy)anilino]pyrimidin-5-yl]prop-2-enylidene]hydrazono]thiazolidin-4-one]: the mortality at 800 ppm in test [1], in test [2] and in test [3] was not below 75% throughout. In addition, the mortality (as a rule, the percentage killed) at 500 ppm in test [4] is not below 75%. In addition, in test [5], the mortality at 300 ppm was not below 75%.
`CC(/C=N/N=C1\SCC(=O)N1c1ccccc1C(C)C)Oc1ccc(N(C)c2ccc(OC(F)(F)F)cc2)nn1` (stereo not shown) [Compound C-28, (2Z)-3-(2-isopropylphenyl)-2-[(E)-2-[6-[N-methyl-4-(trifluoromethoxy)anilino]pyridazin-3-yl]oxypropylidenehydrazono]thiazolidin-4-one]: the mortality at 500 ppm in test [4] was not below 75%.
For `Cc1cc(N(C)c2ccc(OC(F)(F)F)cc2)nc(C)c1OC/C=N/NC(=S)Nc1ccccc1C(C)C` [Compound C-30, 1-[(E)-2-[[2,4-dimethyl-6-[N-methyl-4-(trifluoromethoxy)anilino]-3-pyridyl]oxy]ethylideneamino]-3-(2-isopropylphenyl)thiourea], in test [3], the mortality at 800 ppm is not below 75%. Further, the mortality at 500 ppm in test [4] was not below 75%.
`CC(C)c1ccccc1N1C(=O)CS/C1=N\N=C\COc1cnc(N(C)c2ccc(OC(F)(F)F)cc2)nc1` [Compound C-19, (2Z)-3-(2-isopropylphenyl)-2-[(E)-2-[2-[N-methyl-4-(trifluoromethoxy)anilino]pyrimidin-5-yl]oxyethylidenehydrazono]thiazolidin-4-one]: in test [4], the mortality at 500 ppm is not below 75%. The mortality at 300 ppm in test [5] is not below 75%.
As for `CC(/C=N/NC(=S)Nc1ccccc1C(C)C)Oc1cnc(N(C)c2ccc(OC(F)(F)F)cc2)nc1` (stereo not shown) [Compound C-20, 1-(2-isopropylphenyl)-3-[(E)-2-[2-[N-methyl-4-(trifluoromethoxy)anilino]pyrimidin-5-yl]oxypropylideneamino]thiourea], in test [4], the mortality at 500 ppm was not below 75%.
As for `CC(C)c1ccccc1NC(=S)N/N=C/C(=O)Nc1cnc(N(C)c2ccc(OC(F)(F)F)cc2)nc1` [Compound C-13, (2E)-2-[(2-isopropylphenyl)carbamothioylhydrazono]-N-[2-[N-methyl-4-(trifluoromethoxy)anilino]pyrimidin-5-yl]acetamide], the mortality at 800 ppm in test [3] is not below 75%. The mortality at 500 ppm in test [4] was not below 75%. In test [5], the mortality at 300 ppm is not below 75%.
Turning to `CC(C)c1ccccc1N1C(=O)CS/C1=N\N=C\C(=O)Nc1cnc(N(C)c2ccc(OC(F)(F)F)cc2)nc1` [Compound C-11, (2E)-2-[(Z)-[3-(2-isopropylphenyl)-4-oxo-thiazolidin-2-ylidene]hydrazono]-N-[2-[N-methyl-4-(trifluoromethoxy)anilino]pyrimidin-5-yl]acetamide], the mortality at 800 ppm in test [3] was not below 75%. In addition, the mortality at 500 ppm in test [4] was not below 75%. Besides, the mortality at 300 ppm in test [5] was not below 75%.
Take `CC(C)c1ccccc1N1C(=O)CS/C1=N\N=C\COc1ccc(N(C)c2ccc(OC(F)(F)F)cc2)nn1` [Compound C-29, (2Z)-3-(2-isopropylphenyl)-2-[(E)-2-[6-[N-methyl-4-(trifluoromethoxy)anilino]pyridazin-3-yl]oxyethylidenehydrazono]thiazolidin-4-one]: the mortality at 500 ppm in test [4] was not below 75%.
Take `Cc1cc(N(C)c2ccc(OC(F)(F)F)cc2)nc(C)c1OC/C=N/N=C1\SCC(=O)N1c1ccccc1C(C)C` [Compound C-31, (2Z)-2-[(E)-2-[[2,4-dimethyl-6-[N-methyl-4-(trifluoromethoxy)anilino]-3-pyridyl]oxy]ethylidenehydrazono]-3-(2-isopropylphenyl)thiazolidin-4-one]: the mortality at 800 ppm in test [1], in test [2] and in test [3] was not below 75% in each case. In addition, the mortality at 500 ppm in test [4] was not below 75%. Besides, in test [5], the mortality at 300 ppm was not below 75%.
In the case of `Cc1nc(N(C)c2ccc(OC(F)(F)F)cc2)ncc1CC(C)/C=N/N=C1\SCC(=O)N1c1ccccc1C(C)C` (stereo not shown) [Compound C-24, (2Z)-3-(2-isopropylphenyl)-2-[(E)-[2-methyl-3-[4-methyl-2-[N-methyl-4-(trifluoromethoxy)anilino]pyrimidin-5-yl]propylidene]hydrazono]thiazolidin-4-one], the mortality at 800 ppm in test [3] was not below 75%. For the same compound, the mortality at 500 ppm in test [4] is not below 75%.
In the case of `CC(C)c1ccccc1N1CC(=O)N(/N=C/C=C/c2cnc(N(C)c3ccc(OC(F)(F)F)cc3)nc2)C1=O` [Compound C-14, 1-(2-isopropylphenyl)-3-[(E)-[(E)-3-[2-[N-methyl-4-(trifluoromethoxy)anilino]pyrimidin-5-yl]prop-2-enylidene]amino]imidazolidine-2,4-dione], the mortality at 500 ppm in test [6] and in test [4] was not below 75% throughout. Further, the mortality at 800 ppm in test [2] and in test [3] was not below 75% in each case.
In the case of `CC(/C=N/N=C1\SCC(=O)N1c1ccccc1C(C)C)Oc1cnc(N(C)c2ccc(OC(F)(F)F)cc2)nc1` (stereo not shown) [Compound C-21, (2Z)-3-(2-isopropylphenyl)-2-[(E)-2-[2-[N-methyl-4-(trifluoromethoxy)anilino]pyrimidin-5-yl]oxypropylidenehydrazono]thiazolidin-4-one], the mortality at 500 ppm in test [4] was not below 75%.
As to `CC(C)c1ccccc1NC(=S)N/N=C/COc1cnc(N(C)c2ccc(OC(F)(F)F)cc2)nc1` [Compound C-18, 1-(2-isopropylphenyl)-3-[(E)-2-[2-[N-methyl-4-(trifluoromethoxy)anilino]pyrimidin-5-yl]oxyethylideneamino]thiourea], the mortality at 500 ppm in test [4] is not below 75%. For the same compound, the mortality at 300 ppm in test [5] is not below 75%.
Turning to `CC(/C=N/NC(=S)Nc1c(C)cccc1C)=C\c1cnc(Nc2ccc(OC(F)(F)F)cc2)nc1` [Compound C-2, 1-(2,6-dimethylphenyl)-3-[(E)-[(E)-2-methyl-3-[2-[4-(trifluoromethoxy)anilino]pyrimidin-5-yl]prop-2-enylidene]amino]thiourea], the mortality at 800 ppm in test [1], in test [2] and in test [3] was not below 75% each time. For the same compound, the mortality at 500 ppm in test [4] was not below 75%. Moreover, in test [5], the mortality at 300 ppm is not below 75%.
Turning to `CC(C)c1ccccc1N1C(=O)CS/C1=N\N=C\C(=O)N(C)c1cnc(N(C)c2ccc(OC(F)(F)F)cc2)nc1` [Compound C-10, (2E)-2-[(Z)-[3-(2-isopropylphenyl)-4-oxo-thiazolidin-2-ylidene]hydrazono]-N-methyl-N-[2-[N-methyl-4-(trifluoromethoxy)anilino]pyrimidin-5-yl]acetamide], the mortality at 800 ppm in test [3] is not below 75%. In test [4], the mortality at 500 ppm is not below 75%. In test [5], the mortality at 300 ppm is not below 75%.

For the origin of these results see patent US20200077658A1, “Pesticidal Compounds” (BASF SE, priority 2016, published 2020).
